Assay results taken from publication PMC4769319, “Cohesin Releases DNA through Asymmetric ATPase-Driven Ring Opening” (Molecular Cell, 2016).

Biological target: T1, Smc1/Smc3 heterodimer with Scc1-C (cohesin) (Saccharomyces cerevisiae, UniProt P32908+P47037, P32908:L1129V, form not given)
T1 construct: N-terminal tags; Sf9 insect cells; fluorescently labelled for MST; with Sister chromatid cohesion protein 1
T1 sequence (P32908 1-1225 L1129V): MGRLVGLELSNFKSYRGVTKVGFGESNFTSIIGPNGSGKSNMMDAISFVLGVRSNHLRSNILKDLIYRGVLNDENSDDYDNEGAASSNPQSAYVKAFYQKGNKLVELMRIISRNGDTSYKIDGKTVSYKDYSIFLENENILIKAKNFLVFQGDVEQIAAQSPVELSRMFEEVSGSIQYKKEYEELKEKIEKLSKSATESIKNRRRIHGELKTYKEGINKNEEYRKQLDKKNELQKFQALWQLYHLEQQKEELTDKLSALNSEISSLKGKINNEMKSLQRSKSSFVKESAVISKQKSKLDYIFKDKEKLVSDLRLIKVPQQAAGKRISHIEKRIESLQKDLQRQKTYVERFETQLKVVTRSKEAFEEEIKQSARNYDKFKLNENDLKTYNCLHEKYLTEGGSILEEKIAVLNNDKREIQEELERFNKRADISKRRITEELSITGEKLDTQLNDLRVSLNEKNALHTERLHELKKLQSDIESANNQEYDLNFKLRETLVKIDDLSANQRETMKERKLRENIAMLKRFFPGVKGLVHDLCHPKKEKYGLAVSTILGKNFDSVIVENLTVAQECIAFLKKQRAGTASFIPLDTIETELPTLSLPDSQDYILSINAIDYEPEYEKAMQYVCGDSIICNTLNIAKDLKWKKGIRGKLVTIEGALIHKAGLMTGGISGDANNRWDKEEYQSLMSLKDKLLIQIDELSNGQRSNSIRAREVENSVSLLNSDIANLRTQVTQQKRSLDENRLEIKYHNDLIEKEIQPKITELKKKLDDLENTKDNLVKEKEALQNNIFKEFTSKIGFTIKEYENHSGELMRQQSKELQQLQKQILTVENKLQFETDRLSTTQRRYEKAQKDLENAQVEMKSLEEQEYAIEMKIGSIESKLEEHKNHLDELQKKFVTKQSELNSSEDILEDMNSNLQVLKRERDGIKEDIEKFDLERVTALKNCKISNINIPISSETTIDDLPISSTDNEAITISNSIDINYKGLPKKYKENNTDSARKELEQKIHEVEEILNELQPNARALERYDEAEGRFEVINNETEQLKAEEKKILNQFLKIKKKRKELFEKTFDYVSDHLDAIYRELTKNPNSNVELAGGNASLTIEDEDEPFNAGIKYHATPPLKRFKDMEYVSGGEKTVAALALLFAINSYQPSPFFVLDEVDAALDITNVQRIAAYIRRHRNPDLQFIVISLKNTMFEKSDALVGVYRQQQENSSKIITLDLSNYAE
T1 sequence (P47037 1-1230): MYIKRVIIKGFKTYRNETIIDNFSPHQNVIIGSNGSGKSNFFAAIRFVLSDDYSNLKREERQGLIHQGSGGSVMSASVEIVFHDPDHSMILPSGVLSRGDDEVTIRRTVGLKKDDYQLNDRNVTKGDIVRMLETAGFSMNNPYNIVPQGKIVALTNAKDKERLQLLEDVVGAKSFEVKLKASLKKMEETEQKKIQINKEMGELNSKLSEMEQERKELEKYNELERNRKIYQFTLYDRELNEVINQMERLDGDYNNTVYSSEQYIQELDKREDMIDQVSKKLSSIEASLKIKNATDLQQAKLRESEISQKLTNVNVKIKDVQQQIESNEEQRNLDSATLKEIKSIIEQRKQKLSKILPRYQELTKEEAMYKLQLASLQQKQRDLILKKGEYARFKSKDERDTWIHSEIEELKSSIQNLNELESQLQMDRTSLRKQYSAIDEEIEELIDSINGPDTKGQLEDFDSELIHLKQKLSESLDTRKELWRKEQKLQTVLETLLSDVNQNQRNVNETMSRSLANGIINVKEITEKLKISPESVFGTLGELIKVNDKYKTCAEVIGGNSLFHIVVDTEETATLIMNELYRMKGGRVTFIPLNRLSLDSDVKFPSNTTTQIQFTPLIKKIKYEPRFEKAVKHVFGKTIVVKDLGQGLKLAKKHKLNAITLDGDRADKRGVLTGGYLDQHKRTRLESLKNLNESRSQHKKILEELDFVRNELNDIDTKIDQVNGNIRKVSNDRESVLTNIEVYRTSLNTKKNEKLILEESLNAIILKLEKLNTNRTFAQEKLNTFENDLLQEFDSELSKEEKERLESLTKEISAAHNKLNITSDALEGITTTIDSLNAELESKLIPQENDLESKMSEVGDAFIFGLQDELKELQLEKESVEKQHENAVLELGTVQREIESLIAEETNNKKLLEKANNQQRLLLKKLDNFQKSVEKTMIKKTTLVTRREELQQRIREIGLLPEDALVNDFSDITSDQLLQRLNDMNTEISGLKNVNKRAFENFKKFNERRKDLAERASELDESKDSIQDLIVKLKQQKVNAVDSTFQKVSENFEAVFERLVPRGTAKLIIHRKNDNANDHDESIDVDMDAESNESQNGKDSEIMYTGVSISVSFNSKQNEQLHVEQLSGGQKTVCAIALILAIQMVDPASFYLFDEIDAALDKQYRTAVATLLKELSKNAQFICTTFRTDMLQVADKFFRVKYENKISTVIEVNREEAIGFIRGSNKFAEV
T1 sequence (Q12158 1-566 partner): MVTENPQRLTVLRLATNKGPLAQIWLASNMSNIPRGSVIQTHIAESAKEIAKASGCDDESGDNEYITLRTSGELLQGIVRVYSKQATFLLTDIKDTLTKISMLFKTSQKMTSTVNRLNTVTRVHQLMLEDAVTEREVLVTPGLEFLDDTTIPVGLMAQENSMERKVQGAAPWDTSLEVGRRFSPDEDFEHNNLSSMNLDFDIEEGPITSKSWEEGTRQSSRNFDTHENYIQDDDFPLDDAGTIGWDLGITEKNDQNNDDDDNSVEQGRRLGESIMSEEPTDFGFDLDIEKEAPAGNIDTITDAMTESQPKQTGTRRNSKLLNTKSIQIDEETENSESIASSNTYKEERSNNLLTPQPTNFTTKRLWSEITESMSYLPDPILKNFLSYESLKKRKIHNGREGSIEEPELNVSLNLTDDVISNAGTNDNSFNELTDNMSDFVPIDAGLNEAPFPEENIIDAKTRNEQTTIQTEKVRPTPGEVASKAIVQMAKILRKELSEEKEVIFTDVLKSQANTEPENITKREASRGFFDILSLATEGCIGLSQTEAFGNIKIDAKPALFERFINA
Test: microscale thermophoresis
Type: binding
Details: fluorescently labelled protein; Smc1 co-purified with Scc1-C, plus Smc3; read-out: affinity
Source text: microscale thermophoresis on Smc1/Smc3 heterodimer with Scc1-C (cohesin) | Smc1 L1129V, D1164E and E1158Q mutants all had wild-type-like affinity to both ATP and ADP | wild-type and mutant cohesin complexes appear to have similar affinities to ADP

Kd | Structure (SMILES)
> 1000 µM | Nc1ncnc2c1ncn2[C@@H]1O[C@H](COP(=O)(O)OP(=O)(O)O)[C@@H](O)[C@H]1O [ADP]
667 ± 211 µM | Nc1ncnc2c1ncn2[C@@H]1O[C@H](COP(=O)(O)OP(=O)(O)OP(=O)(O)O)[C@@H](O)[C@H]1O [ATP]
